Test [1] has as its target T1, Angiotensin-converting enzyme (Rattus norvegicus, UniProt P47820).
T1 sequence (P47820 whole entry): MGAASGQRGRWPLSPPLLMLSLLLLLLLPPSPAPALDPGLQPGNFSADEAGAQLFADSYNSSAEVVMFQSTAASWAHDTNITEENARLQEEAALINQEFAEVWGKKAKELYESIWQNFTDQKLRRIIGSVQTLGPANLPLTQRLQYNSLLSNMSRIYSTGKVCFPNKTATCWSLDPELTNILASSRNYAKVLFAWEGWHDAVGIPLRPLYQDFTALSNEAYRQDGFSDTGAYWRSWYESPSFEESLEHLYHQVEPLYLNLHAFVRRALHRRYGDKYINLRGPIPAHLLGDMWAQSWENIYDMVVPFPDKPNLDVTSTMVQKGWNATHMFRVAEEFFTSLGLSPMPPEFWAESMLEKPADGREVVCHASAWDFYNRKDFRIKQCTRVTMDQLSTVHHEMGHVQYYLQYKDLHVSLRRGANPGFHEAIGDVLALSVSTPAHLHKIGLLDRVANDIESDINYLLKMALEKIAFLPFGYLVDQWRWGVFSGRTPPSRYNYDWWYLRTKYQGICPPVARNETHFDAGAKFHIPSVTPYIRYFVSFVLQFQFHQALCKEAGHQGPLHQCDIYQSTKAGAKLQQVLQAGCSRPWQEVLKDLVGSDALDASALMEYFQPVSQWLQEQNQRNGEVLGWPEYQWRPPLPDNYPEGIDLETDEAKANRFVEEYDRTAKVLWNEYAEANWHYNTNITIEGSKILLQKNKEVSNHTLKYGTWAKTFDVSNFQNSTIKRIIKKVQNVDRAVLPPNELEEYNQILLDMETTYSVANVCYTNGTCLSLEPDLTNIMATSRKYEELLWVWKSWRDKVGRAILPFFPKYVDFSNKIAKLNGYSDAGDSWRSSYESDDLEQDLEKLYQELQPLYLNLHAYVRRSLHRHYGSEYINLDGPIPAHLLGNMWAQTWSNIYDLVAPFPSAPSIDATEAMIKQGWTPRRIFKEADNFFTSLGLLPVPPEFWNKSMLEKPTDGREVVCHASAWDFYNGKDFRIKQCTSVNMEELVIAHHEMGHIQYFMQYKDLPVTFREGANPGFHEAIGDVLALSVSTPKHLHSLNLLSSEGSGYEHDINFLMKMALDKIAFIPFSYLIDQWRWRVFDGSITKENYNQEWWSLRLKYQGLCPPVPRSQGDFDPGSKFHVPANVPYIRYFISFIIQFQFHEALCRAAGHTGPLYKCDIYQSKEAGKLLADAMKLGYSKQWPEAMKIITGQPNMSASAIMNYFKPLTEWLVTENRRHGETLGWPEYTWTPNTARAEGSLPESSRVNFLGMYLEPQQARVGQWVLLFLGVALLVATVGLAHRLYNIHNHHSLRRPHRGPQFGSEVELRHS
The experiment in a line: In vitro inhibitory activity against angiotensin converting enzyme (ACE). Particulars: read-out: I50.

A further test concerns the target T2, Neprilysin (Rattus norvegicus, UniProt P07861).
T2 sequence (P07861 whole entry): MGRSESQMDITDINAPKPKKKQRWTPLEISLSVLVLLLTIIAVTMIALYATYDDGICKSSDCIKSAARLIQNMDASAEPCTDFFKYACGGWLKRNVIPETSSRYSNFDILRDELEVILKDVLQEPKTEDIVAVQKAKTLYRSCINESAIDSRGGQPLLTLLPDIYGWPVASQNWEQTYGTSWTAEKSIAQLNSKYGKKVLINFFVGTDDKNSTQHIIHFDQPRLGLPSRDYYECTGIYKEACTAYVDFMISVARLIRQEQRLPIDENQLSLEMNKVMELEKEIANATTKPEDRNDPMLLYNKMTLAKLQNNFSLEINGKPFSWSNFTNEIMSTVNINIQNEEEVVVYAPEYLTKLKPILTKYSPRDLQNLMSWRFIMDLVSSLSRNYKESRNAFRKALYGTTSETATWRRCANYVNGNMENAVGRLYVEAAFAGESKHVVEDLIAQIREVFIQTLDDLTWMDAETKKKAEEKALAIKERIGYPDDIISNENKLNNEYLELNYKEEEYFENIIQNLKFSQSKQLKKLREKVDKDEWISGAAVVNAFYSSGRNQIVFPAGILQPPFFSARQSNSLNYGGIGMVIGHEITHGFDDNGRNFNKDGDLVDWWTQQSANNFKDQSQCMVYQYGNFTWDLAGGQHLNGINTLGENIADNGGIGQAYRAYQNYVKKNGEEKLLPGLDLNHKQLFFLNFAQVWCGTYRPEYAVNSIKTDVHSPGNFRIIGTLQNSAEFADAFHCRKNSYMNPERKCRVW
Put plainly: In vitro inhibitory activity against neutral endopeptidase (NEP). The conditions noted are these: read-out: I50.

A further test is filed under the species Rattus norvegicus. The experiment in a line: Dose required to effect 50% inhibition of the AI induced pressor response in normotensive rat. It counts as functional.

The source of these data is ChEMBL document CHEMBL1152049, “Dual metalloprotease inhibitors.v. Utilization of bicyclic azepinonethiazolidines and azepinonetetrahydrothiazines in constrained peptidomimetics of mercaptoacyl dipeptides” (Bioorg Med Chem Lett, 1995).

Consider `O=C(N[C@H]1CCC[C@@H]2SC[C@@H](C(=O)O)N2C1=O)[C@@H](S)Cc1ccccc1`, for which the results for the IC50 (in test [1]; at Neprilysin) were 0.0115 µM and 2.82 µM, respectively.

Take `O=C(O)[C@H]1CCS[C@@H]2CCC[C@H](NC(=O)[C@@H](S)Cc3ccccc3)C(=O)N12`: the IC50 in test [1] came out at 0.205 µM; on Neprilysin, 0.937 µM.

In the case of `O=C(N[C@H]1CCC[C@H]2SCC[C@@H](C(=O)O)N2C1=O)[C@@H](S)Cc1ccccc1`, the IC50 was determined as 0.025 µM in test [1] and 0.042 µM on Neprilysin.

Take `O=C(N[C@H]1CCC[C@@H]2SCC[C@@H](C(=O)O)N2C1=O)[C@@H](S)Cc1ccccc1`: the IC50 in test [1] was determined as 0.0116 µM; at Neprilysin it was 0.133 µM.

One may read the ED50 as the dose that gives a 50% effect, or the effect in half of the subjects. High values mean weaker potency, low ones greater potency. As for `O=C(N[C@H]1CCC[C@H]2SC[C@@H](C(=O)O)N2C1=O)[C@@H](S)Cc1ccccc1`, the results for the IC50 (in test [1]; at Neprilysin) were 0.0016 µM and 0.0115 µM, respectively. The compound also had a 50% effective dose (ED50) in the test filed under Rattus norvegicus of 0.07 µmol/kg.

Consider `O=C(N[C@H]1CCC[C@H]2SC[C@@H](C(=O)O)N2C1=O)[C@@H](CS)Cc1ccccc1`, for which the IC50 in test [1] is 0.0055 µM; on Neprilysin, 0.0011 µM. This compound yielded a 50% effective dose (ED50) in the test listed under Rattus norvegicus of 0.8 µmol/kg.
